System: human gastric cancer MGC-803 cells
Method: Pharmaceutical reagents were divided into four groups including ZnHgSe quantum dot group, DMF group, DMF-QD group and blank control group. Human gastric cancer MGC-803 cells in exponential phase were digested with trypsin, followed by addition of medium containing 10% fetal bovine serum to make a single cell suspension. The cells were seeded in a 96-well cell culture plate (100 μL of cell suspension was added to each well, containing 9×10^3 cells) and cultured in an incubator of 37° C. and 5% CO2 for 24 h until the cells adhered to the wall of the 96-well plate. Three groups of drug solutions with concentration gradients were added (ZnHgSe quantum dot gradient: 2400 μg·mL^−1, 1200 μg·mL^−1, 600 μg mL^−1, 300 μg·mL^−1, 150 μg·mL^−1, and 75 μg·mL^−1; DMF gradient: 800 μg mL^−1, 400 μg·mL^−1, 200 μg·mL^−1, 100 μg·mL^−1, 50 μg·mL^−1, and 25 μg·mL^−1; corresponding DMF-QD gradient was determined according to DMF concentration by equivalent conversion). Each group was repeated with 6 wells, with an additional zero-adjustment well and a control well. […] The absorbance value OD of each well was measured by an enzyme-linked immunosorbent detector at a wavelength of 490 nm, and the cell growth inhibition rate (IC50) was calculated. IC50 value was calculated according to the modified Karber's method: […]

“dextran-magnetic layered double hydroxide-fluorouracil [DMF]” was tested, and the “cytotoxicity per unit mass relative to quantum dots” value was “about 2.6 times”.

From patent US11007196B1, “Method for preparing composition of matter comprising fluorouracil and zinc-mercury-selenium quantum dot” (priority 2020, dated 2021)
